The assay has as its target T1, CETP (Homo sapiens, UniProt P11597).
T1 construct: Human plasma (50 uL), assay buffer (35 uL) and test compound; tissue New Drug Development Research Center, Inc; host or cells: human EDTA plasma from healthy men
T1 sequence (P11597 18-493): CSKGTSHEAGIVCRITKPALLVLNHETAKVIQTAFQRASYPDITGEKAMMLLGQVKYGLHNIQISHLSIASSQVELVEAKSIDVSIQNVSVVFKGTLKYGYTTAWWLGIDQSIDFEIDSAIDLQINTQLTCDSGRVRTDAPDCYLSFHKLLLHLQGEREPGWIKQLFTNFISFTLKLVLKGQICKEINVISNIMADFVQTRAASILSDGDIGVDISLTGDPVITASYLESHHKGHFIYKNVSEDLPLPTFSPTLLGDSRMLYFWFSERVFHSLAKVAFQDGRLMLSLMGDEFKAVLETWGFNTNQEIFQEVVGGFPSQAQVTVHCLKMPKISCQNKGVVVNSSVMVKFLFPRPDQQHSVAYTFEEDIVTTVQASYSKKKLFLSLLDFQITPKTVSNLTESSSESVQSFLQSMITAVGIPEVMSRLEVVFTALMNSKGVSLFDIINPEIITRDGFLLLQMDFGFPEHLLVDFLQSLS
Description: In vitro CETP activity assay in human plasma. Type of assay: biochemical. The note with it: Table 1 Inhibitory Activity of Compounds. As for the experimental part: The cDNA of human pro-apoAI (NCBI accession number: NM_000039) is cloned from human liver Quick-Clone™ cDNA (Clontech, CA) and inserted to a pET28a vector (Novagen, Germany) for bacterial expression. Expressed protein as a fusion protein with 6×His-tag at N-terminus in BL-21 Gold (DE3) (Strategene, CA) is purified using HiTrap Chelating (GE Healthcare, CT).
Pro-apoAI containing microemulsion as a donor particle is prepared following previous reports (J. Biol. Chem., 280:14918-22). Glyceryl trioleate (62.5 ng, Sigma, Mo.), 3-sn-phosphatidylcholine (583 ng, Wako Pure Chemical Industries, Japan), and cholesteryl BODIPY® FL C12 (250 ng, Invitrogen, CA) are dissolved in 1 mL of chloroform. The solution is evaporated, then residual solvent is removed in vacuum for more than 1 hr. […]
Human EDTA plasma samples from healthy men are purchased from New Drug Development Research Center, Inc. Donor solution is prepared by a dilution of donor microemulsion with assay buffer. […] Fluorescence intensities are measured every 30 min at 37° C. with excitation wave length of 485 nm and emission wavelength of 535 nm. The CETP activity (Fl/min) is defined as the changes of fluorescence intensity from 30 to 90 min.

By IC50 is commonly meant the concentration that gives 50% inhibition. A higher IC50 goes with weaker potency in that assay. `CC[C@@H]1C[C@H](N(Cc2cc(C(F)(F)F)cc(C(F)(F)F)c2)c2ncc(Br)cn2)C[C@H](Cc2ccccc2)N1C(=O)[C@H]1CC[C@@H](O)CC1` (relative stereo) [Example 18, {2-benzyl-4-[(3,5-bis-trifluoromethyl-benzyl)-(5-bromo-pyrimidin-2-yl)-amino]-6-ethyl-piperidin-1-yl}-(4-hydroxy-cyclohexyl)-methanone] had an IC50 of 357 nM.
In the case of `CC[C@@H]1C[C@H](N(Cc2cc(C(F)(F)F)cc(C(F)(F)F)c2)c2ncc(Br)cn2)C[C@H](Cc2ccccc2)N1C(=O)[C@H]1CC[C@@H](OC(C)=O)CC1` (relative stereo) [Example 17, acetic acid 4-{2-benzyl-4-[(3,5-bis-trifluoromethyl-benzyl)-(5-bromo-pyrimidin-2-yl)-amino]-6-ethyl-piperidine-1-carbonyl}-cyclohexyl Ester] it was 314 nM.

For the origin of these results see patent US20090286790A1, “ORGANIC COMPOUNDS” (priority 2006, published 2009).
